Columns and labels:
[1] = tested on: barnyardgrass; assay: Test A pre-/postemergence herbicide test; type: in vivo, Echinochloa crus-galli
Outline: (§1)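 Planted in loam–sand blend; treated the same day preemergence by directed soil spray, while separately grown plants at one- to two-leaf stage got postemergence spray. Compared visually with untreated controls after approximately 10 days; 100 means complete control.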

[2] = tested on: kochia; assay: Test A pre-/postemergence herbicide test; type: in vivo, Kochia scoparia; conditions: for Plant response rating, Kochia: 0 to 100 scale
Outline: as §1

[3] = tested on: ragweed; assay: Test A pre-/postemergence herbicide test; type: in vivo, Ambrosia elatior; conditions: for Plant response rating, Ragweed: 0 to 100 scale
Outline: as §1

[4] = tested on: ryegrass, Italian; assay: Test A pre-/postemergence herbicide test; type: in vivo, Lolium multiflorum; conditions: for Plant response rating, Ryegrass, Italian: 0 to 100 scale
Outline: as §1

[5] = tested on: giant foxtail; assay: Test A pre-/postemergence herbicide test; type: in vivo, Setaria faberii; conditions: for Plant response rating, Foxtail, Giant: 0 to 100 scale
Outline: as §1

[6] = tested on: pigweed; assay: Test A pre-/postemergence herbicide test; type: in vivo, Amaranthus retroflexus; conditions: for Plant response rating, Pigweed: 0 to 100 scale
Outline: as §1

[7] = tested on: wheat; assay: Test A pre-/postemergence herbicide test; type: in vivo, Triticum aestivum; conditions: Postemergence; for Plant response rating, Wheat: 125 g ai/ha, 0 to 100 scale, 0 is no effect, 100 is complete control; for Wheat plant response rating (0 to 100 scale, 0 is no effect, 100 is complete control): 500 g ai/ha
Outline: as §1

[8] = tested on: corn; assay: Test A pre-/postemergence herbicide test; type: in vivo, Zea mays; conditions: Postemergence; for Plant response rating, Corn: 125 g ai/ha, 0 to 100 scale, 0 is no effect, 100 is complete control; for Corn plant response rating (0 to 100 scale, 0 is no effect, 100 is complete control): 500 g ai/ha
Outline: as §1

[9] = tested on: blackgrass; assay: Test A postemergence herbicide test; type: in vivo, Alopecurus myosuroides; conditions: for Plant response rating, Blackgrass: 125 g ai/ha, 0 to 100 scale, 0 is no effect, 100 is complete control; for Blackgrass plant response rating (0 to 100 scale, 0 is no effect, 100 is complete control): 500 g ai/ha
Outline: (§2)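 Ratings compare treated with untreated plants roughly 10 days after a postemergence application made at the one- to two-leaf stage. Scoring uses 0–100, where 0 means no effect and 100 complete control.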

[10] = tested on: galium; assay: Test A postemergence herbicide test; type: in vivo, Galium aparine; conditions: for Plant response rating, Galium: 125 g ai/ha, 0 to 100 scale, 0 is no effect, 100 is complete control; for Galium plant response rating (0 to 100 scale, 0 is no effect, 100 is complete control): 500 g ai/ha
Outline: as §2

[11] = tested on: rice; assay: Test B flooded paddy test; type: in vivo, Oryza sativa; conditions: 500 g ai/ha, Flood; scale of 0 to 100 where 0 is no effect and 100 is complete control
Outline: (§3)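 In-water application to pots flooded 3 cm deep, plants at 2-leaf stage. Held in greenhouse 13–15 days at constant flood depth. Scored 0–100 by eye against controls.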

[12] = tested on: sedge, umbrella; assay: Test B flooded paddy test; type: in vivo, Cyperus difformis; conditions: 500 g ai/ha, Flood; scale of 0 to 100 where 0 is no effect and 100 is complete control
Outline: as §3

[13] = tested on: ducksalad; assay: Test B flooded paddy test; type: in vivo, Heteranthera limosa; conditions: 500 g ai/ha, Flood; scale of 0 to 100 where 0 is no effect and 100 is complete control
Outline: as §3

[14] = tested on: barnyardgrass; assay: Test B flooded paddy test; type: in vivo, Echinochloa crus-galli; conditions: 500 g ai/ha, Flood; scale of 0 to 100 where 0 is no effect and 100 is complete control
Outline: as §3

[15] = 125 g ai/ha, visual rating, 0 to 100 scale, 0 no effect, 100 complete control, approximately 10 days, preemergence
[16] = Postemergence, 125 g ai/ha, 0 to 100 scale, 0 is no effect, 100 is complete control
[17] = preemergence, 500 g ai/ha, 0 to 100 scale (0 no effect, 100 complete control)
[18] = 125 g ai/ha, visual rating, 0 no effect, 100 complete control, approximately 10 days, preemergence
[19] = Postemergence, 125 g ai/ha, 0 is no effect, 100 is complete control
[20] = preemergence, 500 g ai/ha, 0 is no effect and 100 is complete control

Row | SMILES | Plant response rating, Barnyardgrass [1, 15] | Plant response rating, Barnyardgrass [1, 16] | Barnyardgrass plant response rating (0 to 100 scale, 0 is no effect, 100 is complete control) ([1]; Postemergence, 500 g ai/ha) | Plant response rating, Barnyardgrass [1, 17] | Plant response rating, Kochia [2, 18] | Plant response rating, Kochia [2, 19] | Kochia plant response rating (0 to 100 scale, 0 is no effect, 100 is complete control) ([2]; Postemergence, 500 g ai/ha) | Plant response rating, Kochia [2, 20] | Plant response rating, Ragweed [3, 18] | Plant response rating, Ragweed [3, 19] | Ragweed plant response rating (0 to 100 scale, 0 is no effect, 100 is complete control) ([3]; Postemergence, 500 g ai/ha) | Plant response rating, Ragweed [3, 20] | Plant response rating, Ryegrass, Italian [4, 18] | Plant response rating, Ryegrass, Italian [4, 19] | Ryegrass, Italian plant response rating (0 to 100 scale, 0 is no effect, 100 is complete control) ([4]; Postemergence, 500 g ai/ha) | Plant response rating, Ryegrass, Italian [4, 20] | Plant response rating, Foxtail, Giant [5, 18] | Plant response rating, Foxtail, Giant [5, 19] | Foxtail, Giant plant response rating (0 to 100 scale, 0 is no effect, 100 is complete control) ([5]; Postemergence, 500 g ai/ha) | Plant response rating, Foxtail, Giant ([5]; preemergence, 500 g ai/ha) | further results
1 | O=C1NCC(c2ccc3c(c2)OC(F)(F)O3)C1C(=O)Nc1ccc(F)c(F)c1F (racemic) [Compound 162] | 90 | 70 | 90 | 90 | 50 | 40 | 70 | 60 | 0 | 0 | 40 | 60 | 0 | 0 | 50 | 50 | 80 | 90 | 90 | 90 | Plant response rating, Pigweed [6, 18]: 60; Plant response rating, Pigweed [6, 19]: 20; Pigweed plant response rating (0 to 100 scale, 0 is no effect, 100 is complete control) ([6]; Postemergence, 500 g ai/ha): 70; Plant response rating, Pigweed [6, 20]: 80; Plant response rating, Wheat [7]: 0; Wheat plant response rating (0 to 100 scale, 0 is no effect, 100 is complete control) [7]: 50; Plant response rating, Corn [8]: 30; Corn plant response rating (0 to 100 scale, 0 is no effect, 100 is complete control) [8]: 60; Plant response rating, Blackgrass [9]: 50; Blackgrass plant response rating (0 to 100 scale, 0 is no effect, 100 is complete control) [9]: 50; Plant response rating, Galium [10]: 30; Galium plant response rating (0 to 100 scale, 0 is no effect, 100 is complete control) [10]: 70; Plant response rating, Rice [11]: 0; Plant response rating, Sedge, Umbrella [12]: 0; Plant response rating, Ducksalad [13]: 100; Plant response rating, Barnyardgrass [14]: 75
2 | O=C1NCC(c2cccc(C(F)F)c2)C1C(=O)Nc1ccccc1F (racemic) [Compound 163] | 80 | 90 | 90 | 90 | 0 | 0 | 0 | 50 | 0 | 0 | 20 | 40 | 0 | 0 | 30 | 0 | 90 | 70 | 80 | 90 | Plant response rating, Pigweed [6, 18]: 40; Plant response rating, Pigweed [6, 19]: 0; Pigweed plant response rating (0 to 100 scale, 0 is no effect, 100 is complete control) ([6]; Postemergence, 500 g ai/ha): 20; Plant response rating, Pigweed [6, 20]: 40; Plant response rating, Wheat [7]: 20; Wheat plant response rating (0 to 100 scale, 0 is no effect, 100 is complete control) [7]: 60; Plant response rating, Corn [8]: 10; Corn plant response rating (0 to 100 scale, 0 is no effect, 100 is complete control) [8]: 40; Plant response rating, Blackgrass [9]: 50; Blackgrass plant response rating (0 to 100 scale, 0 is no effect, 100 is complete control) [9]: 60; Plant response rating, Galium [10]: 20; Galium plant response rating (0 to 100 scale, 0 is no effect, 100 is complete control) [10]: 60; Plant response rating, Rice [11]: 15; Plant response rating, Sedge, Umbrella [12]: 0; Plant response rating, Ducksalad [13]: 100; Plant response rating, Barnyardgrass [14]: 90
3 | O=C1NCC(c2cccc(C(F)F)c2)C1C(=O)Nc1cccc(F)c1F (racemic) [Compound 164] | 90 | 90 | 90 | 90 | 60 | 60 | 70 | 80 | 20 | 20 | 50 | 60 | 20 | 40 | 50 | 50 | 90 | 70 | 90 | 90 | Plant response rating, Pigweed [6, 18]: 50; Plant response rating, Pigweed [6, 19]: 20; Pigweed plant response rating (0 to 100 scale, 0 is no effect, 100 is complete control) ([6]; Postemergence, 500 g ai/ha): 60; Plant response rating, Pigweed [6, 20]: 70; Plant response rating, Wheat [7]: 40; Wheat plant response rating (0 to 100 scale, 0 is no effect, 100 is complete control) [7]: 80; Plant response rating, Corn [8]: 50; Corn plant response rating (0 to 100 scale, 0 is no effect, 100 is complete control) [8]: 80; Plant response rating, Blackgrass [9]: 50; Blackgrass plant response rating (0 to 100 scale, 0 is no effect, 100 is complete control) [9]: 70; Plant response rating, Galium [10]: 50; Galium plant response rating (0 to 100 scale, 0 is no effect, 100 is complete control) [10]: 60; Plant response rating, Rice [11]: 20; Plant response rating, Sedge, Umbrella [12]: 0; Plant response rating, Ducksalad [13]: 100; Plant response rating, Barnyardgrass [14]: 80
4 | CCc1cccc(C2CNC(=O)C2C(=O)Nc2ccccc2F)c1 (racemic) [Compound 169] | 90 | 90 | 90 | 90 | 40 | 0 | 40 | 60 | 0 | 0 | 0 | 20 | 0 | 20 | 40 | 20 | 80 | 60 | 90 | 90 | Plant response rating, Pigweed [6, 18]: 0; Plant response rating, Pigweed [6, 19]: 0; Pigweed plant response rating (0 to 100 scale, 0 is no effect, 100 is complete control) ([6]; Postemergence, 500 g ai/ha): 0; Plant response rating, Pigweed [6, 20]: 20; Plant response rating, Wheat [7]: 0; Wheat plant response rating (0 to 100 scale, 0 is no effect, 100 is complete control) [7]: 50; Plant response rating, Corn [8]: 0; Corn plant response rating (0 to 100 scale, 0 is no effect, 100 is complete control) [8]: 50; Plant response rating, Blackgrass [9]: 30; Blackgrass plant response rating (0 to 100 scale, 0 is no effect, 100 is complete control) [9]: 60; Plant response rating, Galium [10]: 20; Galium plant response rating (0 to 100 scale, 0 is no effect, 100 is complete control) [10]: 50; Plant response rating, Rice [11]: 0; Plant response rating, Sedge, Umbrella [12]: 0; Plant response rating, Ducksalad [13]: 100; Plant response rating, Barnyardgrass [14]: 80

— patent US10294202B2, “Pyrrolidinones as herbicides” (FMC Corporation, priority 2013, dated 2019)
